These results are taken from patent US10010547B2 (CASCADIAN THERAPEUTICS, INC., priority 2014, dated 2018).

One assay deals with MIA PaCa-2 cells. Briefly: Gemcitabine Combination Cell Assay (Cell Titer Glo). Type of assay: cell-based. To be noted: for pIC50 / IC50: Homo sapiens; for pIC50: Chk1 inhibitor alone, read-out: Chk1 IC50; for pIC50 / 10xLS / 2xLS: MIA PaCa-2 cells, 72 h; for 10xLS: approximate concentration of Chk1 inhibitor that results in a 10-fold reduction in the IC50 of gemcitabine alone; for 2xLS: approximate concentration of Chk1 inhibitor that results in a two-fold reduction in the IC50 of gemcitabine alone; for IC50: MIA PaCa-2, 72 h, read-out: Chk1 IC50 (nM). As for the experimental part:
Gemcitabine Combination Cell Assay
Exponentially growing MIA PaCa-2 (ATCC CRL-1420) cells are treated with trypsin to remove cells from the plate surface. Approximately 10,000 cells/well are plated in 96 well plates in RPMI containing 10% fetal bovine serum, 1% sodium pyruvate and 1% L-GlutaMax. Cells are allowed to adhere to the plate surface overnight. Serial half-log dilutions of Chk1 inhibitor test compounds and gemcitabine are made with a final highest concentration of 3000 nM and 100 nM, respectively. Chk1 inhibitors and gemcitabine are combined so that each concentration of Chk1 inhibitor is added to each concentration of gemcitabine. Each drug is also tested as a single agent. Drugs are added to adherent cells (in duplicate) and incubated for 72 h. At 72 h the cells are treated with Promega Cell Titer Glo reagent for approximately 15 minutes. Luminescence (relative light units, RLU) is recorded using a BMG Polarstar Omega plate reader. The single agent concentration that results in a 50% reduction in total signal (IC50) is calculated using PRISM software and a four-parameter non-linear regression curve fit. For combination studies the RLUs are plotted using PRISM on an XY plot with the gemcitabine concentration on the X axis and RLU on the Y axis. The RLU for each concentration of Chk1 inhibitor is plotted as a function of gemcitabine concentration. The IC50 for gemcitabine alone and at each concentration of Chk1 is determined using a four-parameter non-linear regression curve fit. The approximate concentration of Chk1 inhibitor that results in a two and ten-fold reduction in the IC50 of gemcitabine alone is calculated as an indication of synergistic potency.
From the results obtained by following the above protocol, the IC50 values against MIAPaca-2 cells of the Chk1 inhibitor alone (Chk1 IC50), the approximate concentration of Chk1 inhibitor that results in a two-fold (2×LS) and a 10-fold (10×LS) reduction in the IC50 of gemcitabine alone of each of the compounds of Examples 1-154 are shown in Table 4.

The target in another assay is Chk-1 kinase (Homo sapiens (Human), UniProt O14757). In words: Chk-1 Kinase Inhibiting Activity (33P-ATP filter assay, CHKtide substrate). The class given is biochemical. To be noted: against Chk-1 kinase; read-out: IC50. Here is the method:
Chk-1 Kinase Inhibiting Activity
The compounds of the invention were tested for activity against Chk-1 kinase using the materials and protocols set out below.
Base Reaction buffer: 20 mM Hepes (pH 7.5), 10 mM MgCl2, 1 mM EGTA, 0.02% Brij35, 0.02 mg/ml BSA, 0.1 mM Na3VO4, 2 mM DTT, 1% DMSO
*Required cofactors are added individually to each kinase reaction
(i) Prepare indicated substrate in freshly prepared Base Reaction Buffer
(ii) Deliver any required cofactors to the substrate solution above
(iii) Deliver indicated kinase into the substrate solution and gently mix
(iv) Deliver compounds in DMSO into the kinase reaction mixture
(v) Deliver ^33P-ATP (specific activity 0.01 μCi/μl final) into the reaction mixture to initiate the reaction.
(vi) Incubate kinase reaction for 120 minutes at room temperature
(vii) Reactions are spotted onto P81 ion exchange paper (Whatman #3698-915)
(viii) Wash filters extensively in 0.1% phosphoric acid.
(ix) Dry filters and measure counts in scintillation counter
Recombinant full length construct, N-terminal GST tagged, purified from insect cells.
No special measures were taken to activate this kinase.
Final concentration in assay=0.5 nM
Peptide sequence: [[…]]
Final concentration in assay=20 μM
No additional cofactors are added to the reaction mixture
From the results obtained by following the above protocol, the IC50 values against Chk-1 kinase of each of the compounds of Examples 1-153 were determined and these are shown in Table 3.

pIC50: −log10 of the molar value. Structures can show the parent of a compound that is named as a salt. Where two headings read alike, the source gives them in different places.

Chk-1 kinase, sequence (O14757 whole entry): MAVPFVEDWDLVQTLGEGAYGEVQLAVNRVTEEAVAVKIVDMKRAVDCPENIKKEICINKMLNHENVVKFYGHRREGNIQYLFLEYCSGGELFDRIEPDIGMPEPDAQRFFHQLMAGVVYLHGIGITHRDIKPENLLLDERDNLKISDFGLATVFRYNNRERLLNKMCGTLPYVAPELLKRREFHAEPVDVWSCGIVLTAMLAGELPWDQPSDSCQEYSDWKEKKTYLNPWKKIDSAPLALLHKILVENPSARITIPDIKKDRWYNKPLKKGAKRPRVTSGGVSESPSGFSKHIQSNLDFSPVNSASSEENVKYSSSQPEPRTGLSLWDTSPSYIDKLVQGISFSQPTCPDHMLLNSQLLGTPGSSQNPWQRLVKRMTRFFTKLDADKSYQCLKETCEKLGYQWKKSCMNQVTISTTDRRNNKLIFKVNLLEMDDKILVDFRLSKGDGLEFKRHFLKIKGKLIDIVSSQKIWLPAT

One may read the pIC50 as −log10 of the IC50, conventionally taken in molar units. As for `COc1cc(OC[C@@H]2CCCN2C(C)C)ccc1-c1cc(Nc2cnc(C#N)cn2)n[nH]1` [Example 129, 5-[[5-[4-[[(2S)— 1-isopropylpyrrolidin-2-yl]methoxy]-2-methoxy-phenyl]-1H-pyrazol-3-yl]amino]pyrazine-2-carbonitrile], in the assay on MIA PaCa-2 cells, the pIC50 is 6.56, the “10xLS” value is below 100 nM and the “2xLS” value is recorded as below 3 nM. Further, at Chk-1 kinase, the pIC50 was 10.34.
The matching figures for `COc1cc(C2CCN(C)CC2)ccc1-c1cc(Nc2ccc(C#N)cn2)n[nH]1` [Example 25, 6-[[5-[2-methoxy-4-(1-methyl-4-piperidyl)phenyl]-1H-pyrazol-3-yl]amino]pyridine-3-carbonitrile]: below 5.52, above 3000 nM, 300 nM and 7.85.
The matching figures for `COc1cc(C2(F)CCNCC2)ccc1-c1cc(Nc2cnc(C#N)cn2)n[nH]1` [Example 76, 5-[[5-[4-(4-fluoro-4-piperidyl)-2-methoxy-phenyl]-1H-pyrazol-3-yl]amino]pyrazine-2-carbonitrile]: 6.32, 300 nM, 10 nM and 9.96.
What is called IC50 is the concentration at which inhibition is half-maximal. In the case of `COc1cc(OC[C@H]2CCCN2C)ccc1-c1cc(Nc2cnc(C#N)cn2)n[nH]1` [Example 103, 5-[[5-[2-methoxy-4-[[(2R)-1-methylpyrrolidin-2-yl]methoxy]phenyl]-1H-pyrazol-3-yl]amino]pyrazine-2-carbonitrile hydrochloride], in the assay with MIA PaCa-2 cells, the IC50 was 184 nM, the “10xLS” value came to 300 nM and the “2xLS” value turned out to be 3 nM. Also, the pIC50 on Chk-1 kinase is 9.96.
As to `COc1cc(C2CCOCC2)ccc1-c1cc(Nc2cnc(C#N)cn2)n[nH]1` [Example 48, 5-[[5-(2-methoxy-4-tetrahydropyran-4-yl-phenyl)-1H-pyrazol-3-yl]amino]pyrazine-2-carbonitrile], in the assay with MIA PaCa-2 cells, the pIC50 was 5.69, the “10xLS” value turned out to be 1000 nM and the “2xLS” value worked out at 100 nM. The pIC50 on Chk-1 kinase was 8.82.
Consider `COc1cc(N2CCN(C)CC2)ccc1-c1cc(Nc2cnc(C#N)cn2)n[nH]1` [Example 22, 5-[[5-[2-methoxy-4-(4-methylpiperazin-1-yl)phenyl]-1H-pyrazol-3-yl]amino]pyrazine-2-carbonitrile hydrochloride], for which, in the assay with MIA PaCa-2 cells, the IC50 was 88 nM, the “10xLS” value is below 30 nM and the “2xLS” value is on record as below 3 nM. At Chk-1 kinase, the pIC50 is 10.59.
With `COc1cc(CNC(C)(C)CN2CCOCC2)ccc1-c1cc(Nc2cnc(C#N)cn2)n[nH]1` [Example 19, 5-[[5-[4-[[(1,1-dimethyl-2-morpholino-ethyl)amino]methyl]-2-methoxy-phenyl]-1H-pyrazol-3-yl]amino]pyrazine-2-carbonitrile], in the assay on MIA PaCa-2 cells, the pIC50 is 5.79, the “10xLS” value is around 200 nM and the “2xLS” value worked out at 3 nM. For the same compound, at Chk-1 kinase, the pIC50 is 9.54.
The matching figures for `COc1cc(OCC2CCOCC2)ccc1-c1cc(Nc2cnc(C#N)cn2)n[nH]1` [Example 75, 5-[[5-[2-methoxy-4-(tetrahydropyran-4-ylmethoxy)phenyl]-1H-pyrazol-3-yl]amino]pyrazine-2-carbonitrile]: below 5.52, above 3000 nM, above 3000 nM and 9.26.
The like results for `COc1cc(C2CCN(C(C)C)CC2F)ccc1-c1cc(Nc2cnc(C#N)cn2)n[nH]1` (centres unmarked) [Example 88, 5-[[5-[4-(3-fluoro-1-isopropyl-4-piperidyl)-2-methoxy-phenyl]-1H-pyrazol-3-yl]amino]pyrazine-2-carbonitrile] were, in that order, 6.37, 300 nM, 10 nM and 10.10.
Turning to `COc1cc(N2CCN(CC(C)C)CC2)ccc1-c1cc(Nc2cnc(C#N)cn2)n[nH]1` [Example 142, 5-[[5-[4-(4-isobutylpiperazin-1-yl)-2-methoxy-phenyl]-1H-pyrazol-3-yl]amino]pyrazine-2-carbonitrile], in the assay with MIA PaCa-2 cells, the pIC50 was 6.51, the “10xLS” value is 100 nM and the “2xLS” value was 3 nM. In addition, the pIC50 at Chk-1 kinase was 10.09.
The matching figures for `COc1cc(C2CCN(C)CC2)ccc1-c1cc(Nc2cnc(Cl)cn2)n[nH]1` [Example 44, 5-chloro-N-[5-[2-methoxy-4-(1-methyl-4-piperidyl)phenyl]-1H-pyrazol-3-yl]pyrazin-2-amine]: 5.90, 1000 nM, 100 nM and 9.16.
The matching figures for `COc1cc(N2CCN(C(C)C)CC2)ccc1-c1cc(Nc2cnc(C#N)cn2)n[nH]1` [Example 81, 5-[[5-[4-(4-isopropylpiperazin-1-yl)-2-methoxy-phenyl]-1H-pyrazol-3-yl]amino]pyrazine-2-carbonitrile]: 7.44, below 30 nM, below 3 nM and 9.82.
Consider `COc1cc(OC2CCN(C(C)C)CC2)ccc1-c1cc(Nc2cnc(C#N)cn2)n[nH]1` [Example 135, 5-[[5-[4-[(1-isopropyl-4-piperidyl)oxy]-2-methoxy-phenyl]-1H-pyrazol-3-yl]amino]pyrazine-2-carbonitrile], for which, in the assay on MIA PaCa-2 cells, the pIC50 was 6.48, the “10xLS” value stood at 100 nM and the “2xLS” value is listed as below 3 nM. The pIC50 on Chk-1 kinase was 10.27.
The like results for `CCN1CC[C@H](OCc2ccc(-c3cc(Nc4cnc(C#N)cn4)n[nH]3)c(OC)c2)C1` [Example 138, 5-[[5-[4-[[(3S)-1-ethylpyrrolidin-3-yl]oxymethyl]-2-methoxy-phenyl]-1H-pyrazol-3-yl]amino]pyrazine-2-carbonitrile] were, in that order, 6.08, 300 nM, below 10 nM and 10.39.
The like results for `COc1cc(O[C@@H]2CCN(C(C)C)C2)ccc1-c1cc(Nc2cnc(C#N)cn2)n[nH]1` [Example 95, 5-[[5-[4-[(3R)-1-isopropylpyrrolidin-3-yl]oxy-2-methoxy-phenyl]-1H-pyrazol-3-yl]amino]pyrazine-2-carbonitrile] were, in that order, 6.74, below 100 nM, below 3 nM and 9.82.
`COc1cc(O[C@H]2CCN(C(C)C)C2)ccc1-c1cc(Nc2cnc(C#N)cn2)n[nH]1` [Example 94, 5-[[5-[4-[(3S)-1-isopropylpyrrolidin-3-yl]oxy-2-methoxy-phenyl]-1H-pyrazol-3-yl]amino]pyrazine-2-carbonitrile]: in the assay with MIA PaCa-2 cells, the pIC50 is 6.32, the “10xLS” value stood at 100 nM and the “2xLS” value turned out to be 3 nM. The pIC50 at Chk-1 kinase was 9.74.
The matching figures for `COc1cc(C2CCNCC2)ccc1-c1cc(Nc2ccc(C#N)nc2)n[nH]1` [Example 52, 5-[[5-[2-methoxy-4-(4-piperidyl)phenyl]-1H-pyrazol-3-yl]amino]pyridine-2-carbonitrile]: 6.02, 300 nM, 30 nM and 9.34.
